Here are results for three compounds from paper PMC5131915, “Platinum(II) Iodido Complexes of 7-Azaindoles with Significant Antiproliferative Effects: An Old Story Revisited with Unexpected Outcomes” (PLoS ONE, 2016).

Series [1] relates to HOS osteosarcoma cells. Put plainly: In vitro cytotoxicity testing (MTT assay), HOS. The series is classed as cell-based, human. Particulars: for IC50: 24 h drug exposure, no recovery, MTT, read-out: IC50±SD, HOS; for selectivity factor IC50(Hep)/IC50(cancer cell line): HOS; for times more potent than cisplatin: HOS cell line. The protocol: (§1) A2780 ovarian carcinoma, A2780R cisplatin-resistant ovarian carcinoma, HOS osteosarcoma, G361 malignant melanoma, MCF7 breast carcinoma, A549 lung carcinoma, HeLa cervix carcinoma, 22Rv1 prostate carcinoma and Caco-2 colorectal carcinoma human cancer cell lines were purchased from the European Collection of Cell Cultures (ECACC), while the human non-cancerous hepatocytes (Hep) were supplied by Biopredic Intl. The cell lines were cultured, according to the suppliers`instructions, in RPMI-1640 medium supplemented with 10% of fetal calf serum, 1% of 2 mM glutamine, and 1% penicillin/streptomycin. All cell lines were grown as adherent monolayers at 37°C and 5% CO2 in a humidified atmosphere.
(§2) The cells were seeded to 96-well culture plates, pre-incubated in drug-free media at 37°C for 24 h and treated typically with the 0.01–50.0 μM solutions, prepared from the stock solutions by dilution with medium, for 24 h at 37°C. […] In parallel with compounds 1–8 and the reference drugs, the cells were also treated with vehicle (0.1% DMF in medium; negative control) and Triton X-100 (1%; positive control) to assess the minimal and maximal cell damage, respectively. The MTT assay was used to determine the cell viability; MTT = 3-(4,5-dimethylthiazol-2-yl)-2,5-diphenyltetrazolium bromide. A concentration of the formed dye was evaluated spectrophotometrically at 540 nm (TECAN, Schoeller Instruments LLC).
(§3) The data were expressed as the percentage of viability, where 100% and 0% represents the treatments with negative and positive controls, respectively. The data from the cancer cells were acquired from three independent experiments (conducted in triplicate) using cells from different passages. The resulting IC50 values (μM) were calculated from viability curves and the results are presented as arithmetic mean±SD.
(Tetrazolium dyes change colour on reduction, which living cells bring about.)

In series [2] the test system is G361 malignant melanoma cells. Put plainly: In vitro cytotoxicity testing (MTT assay), G361. It is filed as cell-based, human. Particulars: 24 h drug exposure, no recovery, read-out: IC50±SD, G361. The protocol:
as §1, §2, §3

For series [3], the system named is MCF7 breast carcinoma cells. Put plainly: In vitro cytotoxicity testing (MTT assay), MCF7. Particulars: 24 h drug exposure, no recovery, read-out: IC50±SD, MCF7. The series is classed as cell-based, human. The protocol: as §1, §2, §3
Series [4] has as its system A549 lung carcinoma cells. Put plainly: In vitro cytotoxicity testing (MTT assay), A549. The series is classed as cell-based, human. The note with it: 24 h drug exposure, no recovery, read-out: IC50±SD, A549. The protocol:
as §1, §2, §3

Series [5] concerns HeLa cervix carcinoma cells. Put plainly: In vitro cytotoxicity testing (MTT assay), HeLa. It is filed as cell-based, human. The note with it: 24 h drug exposure, no recovery, read-out: IC50±SD, HeLa. How it is done: as §1, §2, §3
In series [6] the test system is 22Rv1 prostate carcinoma cells. In words: In vitro cytotoxicity testing (MTT assay), 22Rv1. It is filed as cell-based, human. Particulars: 24 h drug exposure, no recovery, read-out: IC50±SD, 22Rv1. The protocol:
as §1, §2, §3

In series [7] the test system is A2780R cisplatin-resistant ovarian carcinoma cells. In words: In vitro cytotoxicity testing (MTT assay), A2780R. The series is classed as cell-based, human. Particulars: for resistance factor (RF), IC50(A2780R)/IC50(A2780): 24 h IC50 values; for IC50: 24 h drug exposure, no recovery, MTT, read-out: IC50±SD, A2780R. How it is done:
All cell lines were grown as adherent monolayers at 37°C and 5% CO2 in a humidified atmosphere.
The MTT assay was used to determine the cell viability; MTT = 3-(4,5-dimethylthiazol-2-yl)-2,5-diphenyltetrazolium bromide. A concentration of the formed dye was evaluated spectrophotometrically at 540 nm (TECAN, Schoeller Instruments LLC).
as §3

For series [8], the system named is human non-cancerous hepatocytes (Hep). Put plainly: In vitro cytotoxicity testing (MTT assay), hepatocytes. Particulars: 24 h drug exposure, no recovery. The series is classed as cell-based. The protocol: as §1, §2, §3
Series [9] has as its system MCF7 cells. In words: Cell cycle analysis (PI/RNase, flow cytometry), MCF7. It is filed as cell-based, human. The note with it: MCF7, 24 h, IC50 concentration. In general terms: A flow cytometer gives signals particle by particle.
Experimental: The A2780 and MCF7 cells (1.0 × 10^6 per well) were pre-incubated in a six-well plate for 24 h as described above. […] After 24 h, floating cells were collected and attached cells were harvested using trypsin/EDTA in PBS. Total cells were washed twice with PBS and fixed in 70% ethanol. Cells were re-suspended in PBS and DNA staining was achieved by a solution of propidium iodide (PI) supplemented with RNase A (30 min, 25°C, in the dark). […] The data were analysed using CytExpert™ software (Beckman Coulter).
Series [10] has as its system calf thymus DNA (ctDNA). In words: Fluorescence quenching experiments on the EtBr/ctDNA system. The series is classed as binding. Particulars: for Stern-Volmer quenching constant KSV: TRIS/NaCl buffer pH 7.2; for apparent binding constant Kapp: estimated from Q50. The protocol:
A volume of 405 μL of 154 μM ctDNA and 10 μL of 3 mM EtBr were mixed together in TRIS/NaCl buffer (pH = 7.2) and incubated for 30 min at ambient temperature. […] The mixtures were incubated at ambient temperature for next 15 min. The maxima of the emitted fluorescence of EtBr/ctDNA system have been observed at 613 nm (using the 546 nm excitation wavelength) and the intensity of fluorescence was recorded on a AvaSpec HS1024x122TE fluorescence spectrometer using a 1 cm quartz cell. […] Due to the indirect nature of the fluorescence quenching method, the value of KSV can be used for the estimation of the apparent binding constant Kapp of the complex by using the equation KEB [EtBr] = Kapp [Q50], where [Q50] is the concentration of the complex causing the 50% reduction in the intensity of fluorescence of the EtBr/DNA supramolecular complex, KEB = 1.0 × 10^6 M^−1 and [EtBr] = 10 μM [27].

Series [11] relates to L1210 mouse lymphocytic leukaemia cells. In words: In vivo antitumour activity testing, L1210 lymphocytic leukaemia model. Also on record: species or system mice. Particulars: i.p.; for tolerability / signs of toxicity (e.g. weight loss) / percentage of mean survival time T/C / mean survival time ± SD: dose equimolar to cisplatin 2 mg/kg; for mean survival time ± SD: 10 days after implantation, control 17.4±1.6 days. How it is done: The experimental animals used for in vivo antitumour testing were female DBA/2 SPF mice obtained from Charles Rivers Laboratories. The animals were housed in the Sealsafe NEXT—IVC Blue Line Housing System (Tecniplast, Italy) to ensure the best possible experimental conditions and eliminate the risk of possible intergroup cross-contamination, and kept in Plexiglas cages at constant temperature (22±1°C) and relative humidity of 55±5% for one-week adaptation period before the start of the experiment. All experimental procedures were performed according to the National Institute of Health (NIH) Guide for the Care and Use of Laboratory Animals. The protocol was approved by the Expert Committee on the Protection of Animals Against Cruelty at the University of Veterinary and Pharmaceutical Sciences Brno (Permit Number: 71/2013). The number of pharmacological interventions was limited to the necessary minimum in order to minimize the suffering of animals, which were observed regularly for the symptoms connected with the tumour progression. […] No animals had to be sacrificed due to the above mentioned criteria of humane treatment and no post-application deaths within the 2 hours after the application were observed during the experiment. […] The animal tissues for the ex vivo experiments and histological evaluations were taken post mortem, in case of surviving animals immediately after they were sacrificed by the lethal dose of carbon dioxide inhalation, immediately followed by the cervical dislocation.
The animals were monitored several times a day for the signs of tumour progression and distress development.

Series [12] deals with caspase 3 (Cas-3), active form p17. In words: Ex vivo Western blot of tumour tissues, cleaved caspase 3. It is filed as in vivo, mice. The note with it: pooled tumour samples. (In general: In western blotting, separated proteins are transferred to a membrane and probed.)
Experimental: Frozen tumour samples were homogenized by a bench blender IKA DI25 (IKA-Werke, Germany) in the presence of a lysis buffer [cOmplete Protease Inhibitor Cocktail (Roche, Germany), 50 mM Tris-HCl pH 7.5, 1 mM EGTA, 1 mM EDTA, 1 mM sodium orthovanadate, 50 mM sodium fluoride, 5 mM sodium pyrophosphate, 270 mM sucrose, 0.5% (v/v) Triton X-100]. Subsequently, the blended samples were centrifuged at 9.000 g at 4°C for 15 min. The supernatants were collected and the protein concentration was measured by the Brandford’s method using the Brandford reagent (Amresco, USA) according to the manufacturer’s manual. The measured samples were stored at -80°C for the following experiments.
The expression of caspase 3, MCL-1, p53, and β-actin as loading control were evaluated by Western blot analysis and immunodetection. Lysates were mixed with a denaturing loading dye [250 mM Tris-HCl pH 6.8, 5% (v/v) β-mercaptoethanol, 10% (w/v) sodium dodecyl sulfate, 30% (v/v) glycerol, 0.04% (w/v) bromophenol blue], heated for 5 min at 70°C. […] The final protein amount was 50 μg per well. After protein separation in the gel, they were transferred on the Immun-Blot polyvinylidene difluoride membrane 0.2 μm (Bio-Rad, USA). Then, the membrane was blocked by 5% (w/v) BSA in TBST [10 mM Tris-HCl pH 7.5, 150 mM NaCl, 0.1% (v/v) Tween-20]. […] HRP was detected by Clarity Western ECL Substrate (Bio-Rad, USA) using chemiluminescent documentation system Syngene PXi-4 (UK).
Series [13] has as its system spleen, renal tissue and tumour tissues of L1210 leukaemia-bearing mice. In words: Histological observations (light microscopy, semi-quantitative). The note with it: relative scale 0 to 4.
Text: Randomly selected paraffin block preparations were stained by standard hematoxylin and eosin stain for light microscopic evaluation. Due to high cellularity, the semi-quantitative method was used for the evaluation of necrosis in well-circumcised and diffuse tumour samples and PMN cells infiltration in normal tissues as an indirect sign of toxicity to healthy tissues. The evaluation of necrotic processes and infiltration by PMN cells was semi-quantitative, based on the percentage of necrotic areas and/or infiltrated area in the view-field of at least three different samples.

By IC50 is commonly meant the midpoint of a concentration-inhibition curve. As for `Brc1cc[n+]([Pt-2]([I])([I])[n+]2ccc(Br)c3cc[nH]c32)c2[nH]ccc12` [Complex 6, cis-[Pt(4Braza)2I2]], in series [1], the IC50 came out at 0.4 ± 0.1 µM, the “selectivity factor IC50(Hep)/IC50(cancer cell line)” value is reported as about 10 and the “times more potent than cisplatin” value is at most 47 times. The IC50 in series [2] was 3.2 ± 0.2 µM. Further, the IC50 in [3] came out at 1 ± 0.4 µM. The IC50 in series [4] turned out to be 4.3 ± 0.9 µM. For the same compound, the IC50 in series [5] was 3.8 ± 0.2 µM. Besides, the IC50 in series [6] came out at 3.8 ± 0.1 µM. Further, in series [7], the “resistance factor (RF), IC50(A2780R)/IC50(A2780)” value came to 1.03 and the IC50 stood at 3.3 ± 0.4 µM. The IC50 in series [8] came to 4.1 µM. In [9], this compound registered a G0/G1 population of 73.9±4.6%, a G2/M population of 16.6±2.1%, a S population of 7.2±1.6% and a sub-G1 population of 1.5±0.4%. Further, in series [10], the “Stern-Volmer quenching constant KSV” value is listed as 7.4 × 10^3 M^–1 and the “apparent binding constant Kapp” value was 7.8 × 10^4 M^–1. Besides, in [11], the “tolerability / signs of toxicity (e.g. weight loss)” value was “well-tolerated”, the “percentage of mean survival time T/C” value turned out to be 99% and the “mean survival time ± SD” value was 17.3 ± 2.1 days. Further, in [12], the “level of active form of Cas-3 in tumour tissue” value (shortened to “level”) was “has not been observed”. In series [13], the “Areas of necrosis in tumour tissues” value is on record as 1–2, the “Infiltration of renal tissues (PMN cells)” value is listed as 1 (1 = up to 25%) and the “Infiltration of spleen (PMN cells)” value is recorded as 2 (2 = up to 50%).
As to `Cc1cc2c(Cl)cc[n+]([Pt-2]([I])([I])[n+]3ccc(Cl)c4cc(C)[nH]c43)c2[nH]1` [Complex 8, cis-[PtI2(2Me4Claza)2]], in series [1], the IC50 was 0.7 ± 0.2 µM, the “selectivity factor IC50(Hep)/IC50(cancer cell line)” value was about 14 and the “times more potent than cisplatin” value is at most 47 times. Moreover, in series [2], the IC50 worked out at 1.7 ± 1.3 µM. Moreover, the IC50 in series [3] is 2.1 ± 1 µM. For the same compound, the IC50 in series [4] amounted to 3.5 ± 0.2 µM. Moreover, in series [5], the IC50 was found to be 3.8 ± 0.1 µM. In addition, in series [6], the IC50 amounted to 3.5 ± 0.2 µM. Further, in series [7], the “resistance factor (RF), IC50(A2780R)/IC50(A2780)” value is 0.59 and the 50% inhibitory concentration (IC50) came to 1 ± 0.4 µM. In series [8], this compound had an IC50 of 9.5 µM. In series [9], this compound displayed a G0/G1 population of 64.5±3.3%, a G2/M population of 25.4±2.6%, a S population of 8.9±2.1% and a sub-G1 population of 1.2±0.4%. In series [10], the “Stern-Volmer quenching constant KSV” value is 1.4 × 10^4 M^–1 and the “apparent binding constant Kapp” value is 1.2 × 10^5 M^–1. Besides, in series [11], the “tolerability / signs of toxicity (e.g. weight loss)” value is listed as “well-tolerated”, the “percentage of mean survival time T/C” value was determined as 109% and the “mean survival time ± SD” value stood at 19.0 ± 2.4 days. Further, the “level” value in series [12] is recorded as “dramatically increased”. In series [13], the “Areas of necrosis in tumour tissues” value is reported as 3 (3 = up to 75%), the “Infiltration of renal tissues (PMN cells)” value is reported as 0–1 and the “Infiltration of spleen (PMN cells)” value was 1–2.
Take `N.N.[Cl][Pt][Cl]` [Cisplatin, cisplatin, reference compound]: the IC50 was 18.9 ± 1.7 µM in [1]; 5.3 ± 0.7 µM in series [2]; 17.9 ± 3.5 µM in series [3]; over 50 µM in [4]; 30.4 ± 11 µM in series [5]; 26.9 ± 3.5 µM in series [6]. Further, the IC50 in series [7] is over 50 µM; in [8], over 75 µM. In series [9], this compound showed a G0/G1 population of 33.4±2.8%. The compound further displayed a G2/M population in series [9] of 38.2±1.9%. Also, in [9], the S population is 26.3±1.9%. Besides, the sub-G1 population in series [9] was 1.6±0.2%. Moreover, the “Stern-Volmer quenching constant KSV” value in series [10] is 4.7 × 10^3 M^–1. Moreover, the “apparent binding constant Kapp” value in series [10] is reported as 4.8 × 10^4 M^–1. Also, the “percentage of mean survival time T/C” value in [11] is on record as 108%. Also, in series [11], the “mean survival time ± SD” value is 18.8 ± 2.4 days. The compound further showed a maximum tolerated dose in [11] (mice) of 2 mg/kg. Besides, in series [12], the “level” value is on record as “has not been observed”. The “Areas of necrosis in tumour tissues” value in series [13] is recorded as 3 (3 = up to 75%). Moreover, in series [13], the “Infiltration of renal tissues (PMN cells)” value is reported as 1 (1 = up to 25%). The “Infiltration of spleen (PMN cells)” value in series [13] is listed as 1 (1 = up to 25%).
